Laboratory results taken from ChEMBL document CHEMBL1201862, “PubChem BioAssay data set” (2004).
Active and inactive are the calls of the source.

Tests used:
Large T antigen = Large T antigen (Simian virus 40, UniProt P03070); format: functional, Betapolyomavirus macacae;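 also: Confirmatory-stage PubChem screen for compounds that inhibit SV40 T antigen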
[1] = inhibitors of intracellular T. cruzi replication, confirmation, NIH3T3 host cells, beta-gal luminescence (AID 2044); format: functional, cell-based;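 also: intracellular parasites grown in NIH/3T3 mouse fibroblasts as host cells; luminescent beta-galactosidase reporter signal from transgenic T. cruzi replicating inside host cells; inhibitors lower the luminescence signal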
[2] = cytotoxicity toward NIH3T3 fibroblasts, dose response, counter-screen, cell-based, ATP luminescence, mouse fibroblasts (AID 2010); format: functional;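 also: cells exposed to compound for about 90 hours before reading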
[3] = target: Glucose-6-phosphate 1-dehydrogenase (Homo sapiens, UniProt P11413); test: human G6PD enzyme inhibitors, dose response, selectivity assay for P. falciparum G6PD inhibitor project, biochemical, fluorescence (AID 504792); format: functional
Nonstructural protein 1 = Nonstructural protein 1 (Influenza A virus, UniProt Q194T2); format: functional, Influenza A virus (A/California/07/2009(H1N1))
[4] = target: T1, Replicative DNA helicase DnaB (Mycobacterium tuberculosis, UniProt P9WMR3); test: DnaB intein splicing inhibitors, dose response, biochemical, cell-free fluorescence (AID 449749); format: functional
T1 sequence (P9WMR3 whole entry): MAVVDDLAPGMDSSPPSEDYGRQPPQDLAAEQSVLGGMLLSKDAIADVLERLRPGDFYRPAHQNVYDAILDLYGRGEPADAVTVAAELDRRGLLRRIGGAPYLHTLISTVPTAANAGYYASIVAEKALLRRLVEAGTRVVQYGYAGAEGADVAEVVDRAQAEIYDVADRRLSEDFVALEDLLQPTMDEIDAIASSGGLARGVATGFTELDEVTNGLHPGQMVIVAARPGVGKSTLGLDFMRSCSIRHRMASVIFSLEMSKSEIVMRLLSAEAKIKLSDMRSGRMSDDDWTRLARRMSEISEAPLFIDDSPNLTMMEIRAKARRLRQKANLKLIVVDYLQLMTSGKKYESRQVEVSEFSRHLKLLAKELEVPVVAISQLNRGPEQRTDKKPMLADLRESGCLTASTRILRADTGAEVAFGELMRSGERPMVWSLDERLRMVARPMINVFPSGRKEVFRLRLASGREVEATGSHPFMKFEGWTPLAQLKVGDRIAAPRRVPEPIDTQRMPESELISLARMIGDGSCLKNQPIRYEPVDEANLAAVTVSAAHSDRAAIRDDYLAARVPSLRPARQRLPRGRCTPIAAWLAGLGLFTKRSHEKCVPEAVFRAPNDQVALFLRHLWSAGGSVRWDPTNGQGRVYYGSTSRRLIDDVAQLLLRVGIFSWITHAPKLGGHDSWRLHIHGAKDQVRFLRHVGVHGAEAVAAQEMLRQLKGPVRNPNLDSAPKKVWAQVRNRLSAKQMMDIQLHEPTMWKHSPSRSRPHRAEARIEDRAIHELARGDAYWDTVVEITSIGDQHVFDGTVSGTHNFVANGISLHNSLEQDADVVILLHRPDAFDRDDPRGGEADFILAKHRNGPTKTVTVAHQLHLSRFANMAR

Protein RecA = target: T2, Protein RecA (Mycobacterium tuberculosis, UniProt P9WHJ3); test: Fluorescence Cell-Free Homogeneous Dose Retest to Identify Inhibitors of RecA-Intein Splicing Activity. [Related pubchem assays (depositor defined):AID2097, AID2223, AID489010, AID492950]; format: functional
T2 sequence (P9WHJ3 whole entry): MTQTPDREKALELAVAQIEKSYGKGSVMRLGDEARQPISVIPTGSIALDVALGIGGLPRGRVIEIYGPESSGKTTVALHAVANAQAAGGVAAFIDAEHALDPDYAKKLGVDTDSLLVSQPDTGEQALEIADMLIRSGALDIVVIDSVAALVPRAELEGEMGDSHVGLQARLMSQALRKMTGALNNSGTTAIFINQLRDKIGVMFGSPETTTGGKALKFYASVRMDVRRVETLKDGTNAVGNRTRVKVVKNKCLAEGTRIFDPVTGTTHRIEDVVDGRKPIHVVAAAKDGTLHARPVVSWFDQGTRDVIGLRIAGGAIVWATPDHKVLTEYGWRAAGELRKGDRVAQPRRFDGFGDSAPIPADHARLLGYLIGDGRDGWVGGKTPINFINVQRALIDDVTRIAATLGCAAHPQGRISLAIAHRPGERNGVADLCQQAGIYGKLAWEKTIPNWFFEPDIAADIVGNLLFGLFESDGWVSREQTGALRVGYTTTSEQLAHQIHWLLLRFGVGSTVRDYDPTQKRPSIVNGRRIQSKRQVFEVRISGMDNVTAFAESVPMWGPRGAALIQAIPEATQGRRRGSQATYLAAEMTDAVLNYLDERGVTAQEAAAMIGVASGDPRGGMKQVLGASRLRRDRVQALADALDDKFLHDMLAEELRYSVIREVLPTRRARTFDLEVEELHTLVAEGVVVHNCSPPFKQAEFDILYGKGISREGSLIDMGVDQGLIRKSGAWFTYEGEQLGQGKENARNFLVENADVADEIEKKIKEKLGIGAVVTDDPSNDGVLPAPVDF

INS1 = test: beta cell apoptosis inhibitors, cytokine rescue, dose response, luminescence, retest (AID 449756); format: functional, cell-based; settings: Rattus norvegicus;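 also: cell death triggered by IL-1 beta plus TNF-alpha plus IFN-gamma mixture; protective hits raise ATP signal compared with cytokine alone wells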
[5] = THP-1 cell cytotoxicity, dose response, cytotoxicity control for Vif-APOBEC3G degradation inhibitor project, THP-1 cells (AID 1117359); format: functional; settings: Human immunodeficiency virus 1, THP-1
[6] = target: Glutathione-S-transferase (Schistosoma japonicum, UniProt Q26513); test: biotin-GST/anti-GST TR-FRET signal inhibitors, dose response, artefact control for Vif-APOBEC3G degradation inhibitor project, biochemical (AID 1117362); format: functional
Cytochrome P450 3A4 = Cytochrome P450 3A4 (Homo sapiens, UniProt P08684); settings: Potency;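 also: confirmatory qHTS run detecting inhibitors and substrates of CYP3A4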
[7] = target: Voltage-gated inwardly rectifying potassium channel KCNH2 (Homo sapiens, UniProt Q12809); settings: Potency;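 also: confirmatory quantitative high-throughput screen measuring inhibition of hERG channel activity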
[8] = target: Aryl hydrocarbon receptor (Homo sapiens, UniProt P35869); settings: Potency;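 also: confirmatory quantitative high-throughput screen measuring activation of the AhR signaling pathway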
[9] = target: T3, Probable nicotinate-nucleotide adenylyltransferase (Staphylococcus aureus (strain N315), UniProt P65502); format: functional, Staphylococcus aureus subsp. aureus N315;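 as to IC50 Mean: confirmatory dose-response retesting of NadD inhibitor hits first found in an ultra-high-throughput screen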
[10] = target: T3, Probable nicotinate-nucleotide adenylyltransferase; format: functional, Staphylococcus aureus subsp. aureus N315; settings: read-out: IC50_Mean
[11] = microbe, parasite or virus in culture; format: functional; settings: Mycobacterium tuberculosis
H9c2 = test: cells; format: functional, cell-based; settings: Rattus norvegicus, H9c2, Myocardium;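 also: confirmatory concentration-response retest of ultra-high-throughput screening hits for modulation of myocardial damage; cell death induced by hydrogen peroxide oxidative stress; compound pretreatment for 60 min then peroxide exposure for 2 h; potency is for protecting the cells against peroxide damage rather than for killing them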
[12] = AlphaScreen signal interference compounds, dose response, artefact control for ARNT-TACC3 interaction inhibitor project, biochemical, luminescence, cherry-pick (AID 651705); format: functional;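 also: AlphaScreen bead proximity signal that flags compounds interfering with the detection technology; potency reflects signal decrease which marks the compound as an assay artifact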
Vero = test: host cell cytotoxicity of antiviral hits, dose response, cytotoxicity control for West Nile virus antiviral project, secondary assay (AID 1650); format: functional; settings: Chlorocebus sabaeus
[13] = target: Delta-type opioid receptor (Homo sapiens, UniProt P41143); test: Counterscreen for agonists of heterodimerization of the mu 1 (OPRM1) and delta 1 (OPRD1) opioid receptors: Luminescence-based cell-based high throughput dose response assay to identify agonists of OPRD1 homodimerization. [Related pubchem assays (depositor defined):AID504326, AID504355, AID504692, AID504904, AID504905]; format: functional
Mu-type opioid receptor = Mu-type opioid receptor (Homo sapiens, UniProt P35372); test: Counterscreen for agonists of heterodimerization of the mu 1 (OPRM1) and delta 1 (OPRD1) opioid receptors: Luminescence-based cell-based high throughput dose response assay to identify agonists of OPRM1 homodimerization.; format: functional;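 also: U2OS cells expressing OPRM1 and beta-arrestin as split beta-galactosidase partners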
[14] = target: 5-hydroxytryptamine receptor 5A (Homo sapiens, UniProt P47898); test: Counterscreen for agonists of OPRM1-OPRD1 heterodimerization: luminescence-based cell-based high throughput dose response assay to identify agonists of 5-hydroxytryptamine (serotonin) 5A receptor (HTR5A). [Related pubchem assays (depositor defined):AID504326, AID504355, AID504692, AID504904, AID504905]; format: functional
[15] = MDA-MB-231 cell growth inhibition, dose response, cytotoxicity control for RAD54 inhibitor project, CellTiter-Glo luminescence, cherry-pick (AID 651692); format: functional, cell-based
[16] = target: DNA repair and recombination protein RAD54-like (Homo sapiens, UniProt Q92698); test: inhibitors of human RAD54 branch migration, confirmation, biochemical, fluorescence, cherry-picked samples, dose series (AID 651657); format: functional
[17] = target: T4, DNA repair protein RAD52 homolog (Homo sapiens, UniProt P43351); format: functional, biochemical
T4 sequence (P43351 whole entry): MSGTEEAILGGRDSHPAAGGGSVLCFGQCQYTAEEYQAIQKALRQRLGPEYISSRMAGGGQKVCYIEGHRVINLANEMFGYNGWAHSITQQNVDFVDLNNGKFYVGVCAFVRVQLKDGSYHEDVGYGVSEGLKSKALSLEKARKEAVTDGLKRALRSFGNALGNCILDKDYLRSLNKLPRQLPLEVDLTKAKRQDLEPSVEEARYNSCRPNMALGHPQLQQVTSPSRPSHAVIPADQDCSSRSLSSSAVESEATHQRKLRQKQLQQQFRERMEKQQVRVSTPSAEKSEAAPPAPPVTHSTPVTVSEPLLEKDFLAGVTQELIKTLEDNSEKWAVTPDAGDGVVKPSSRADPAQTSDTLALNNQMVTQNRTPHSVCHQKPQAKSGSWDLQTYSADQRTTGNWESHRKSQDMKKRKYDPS

T3 sequence (P65502 whole entry): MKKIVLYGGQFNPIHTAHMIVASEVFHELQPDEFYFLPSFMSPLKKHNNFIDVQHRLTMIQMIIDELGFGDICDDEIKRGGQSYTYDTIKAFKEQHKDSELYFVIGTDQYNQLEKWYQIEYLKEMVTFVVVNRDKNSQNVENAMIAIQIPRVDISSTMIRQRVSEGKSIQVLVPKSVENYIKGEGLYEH
Chain of Delta-type opioid receptor (P41143 whole entry): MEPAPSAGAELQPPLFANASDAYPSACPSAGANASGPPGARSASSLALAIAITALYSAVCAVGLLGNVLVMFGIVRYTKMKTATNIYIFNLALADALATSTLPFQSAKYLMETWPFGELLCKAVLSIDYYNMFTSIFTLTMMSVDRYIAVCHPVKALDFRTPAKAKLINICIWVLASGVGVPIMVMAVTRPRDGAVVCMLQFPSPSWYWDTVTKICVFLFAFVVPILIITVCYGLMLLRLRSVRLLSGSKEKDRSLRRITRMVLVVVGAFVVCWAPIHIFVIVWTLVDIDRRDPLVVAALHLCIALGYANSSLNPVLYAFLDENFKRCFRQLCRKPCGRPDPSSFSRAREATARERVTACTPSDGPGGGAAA
Chain of Aryl hydrocarbon receptor (P35869 whole entry): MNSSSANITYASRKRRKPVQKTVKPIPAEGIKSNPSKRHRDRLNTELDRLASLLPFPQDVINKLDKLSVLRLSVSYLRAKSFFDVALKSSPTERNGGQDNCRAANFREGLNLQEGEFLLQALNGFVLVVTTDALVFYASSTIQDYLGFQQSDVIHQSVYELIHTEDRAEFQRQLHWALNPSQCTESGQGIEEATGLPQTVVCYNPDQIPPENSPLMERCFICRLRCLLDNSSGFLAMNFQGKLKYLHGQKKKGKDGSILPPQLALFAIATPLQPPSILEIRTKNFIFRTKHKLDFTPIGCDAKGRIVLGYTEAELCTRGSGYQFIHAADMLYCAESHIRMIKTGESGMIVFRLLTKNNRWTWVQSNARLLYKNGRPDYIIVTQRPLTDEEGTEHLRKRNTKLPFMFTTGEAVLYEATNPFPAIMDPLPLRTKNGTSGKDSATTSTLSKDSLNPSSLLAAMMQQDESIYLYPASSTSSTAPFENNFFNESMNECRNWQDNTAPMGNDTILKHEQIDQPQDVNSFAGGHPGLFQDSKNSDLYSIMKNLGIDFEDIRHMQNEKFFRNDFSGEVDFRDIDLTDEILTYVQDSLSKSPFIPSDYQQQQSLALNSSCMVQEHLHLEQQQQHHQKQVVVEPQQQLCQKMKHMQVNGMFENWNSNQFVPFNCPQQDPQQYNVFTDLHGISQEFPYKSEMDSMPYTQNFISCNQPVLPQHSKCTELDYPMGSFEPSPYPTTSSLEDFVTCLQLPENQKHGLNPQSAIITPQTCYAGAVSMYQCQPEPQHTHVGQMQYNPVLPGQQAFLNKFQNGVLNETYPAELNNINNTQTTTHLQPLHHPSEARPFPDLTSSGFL
Chain of 5-hydroxytryptamine receptor 5A (P47898 whole entry): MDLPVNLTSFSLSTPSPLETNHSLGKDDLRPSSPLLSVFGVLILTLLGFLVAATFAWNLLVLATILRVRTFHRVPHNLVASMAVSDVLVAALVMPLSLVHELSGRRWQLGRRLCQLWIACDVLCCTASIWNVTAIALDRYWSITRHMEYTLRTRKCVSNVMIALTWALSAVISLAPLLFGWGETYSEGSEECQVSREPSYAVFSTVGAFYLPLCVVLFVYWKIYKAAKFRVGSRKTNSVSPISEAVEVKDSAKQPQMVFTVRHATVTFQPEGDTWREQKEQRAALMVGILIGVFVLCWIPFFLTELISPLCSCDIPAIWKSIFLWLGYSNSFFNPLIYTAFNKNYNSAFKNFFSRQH
Chain of Nonstructural protein 1 (Q194T2 whole entry): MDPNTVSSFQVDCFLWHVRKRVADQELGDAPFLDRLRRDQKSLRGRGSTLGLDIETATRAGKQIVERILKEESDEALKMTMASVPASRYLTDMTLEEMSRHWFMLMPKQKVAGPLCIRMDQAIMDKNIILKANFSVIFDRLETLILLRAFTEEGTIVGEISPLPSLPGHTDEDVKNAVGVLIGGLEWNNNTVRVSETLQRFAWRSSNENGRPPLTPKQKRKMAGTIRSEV
Chain of Cytochrome P450 3A4 (P08684 whole entry): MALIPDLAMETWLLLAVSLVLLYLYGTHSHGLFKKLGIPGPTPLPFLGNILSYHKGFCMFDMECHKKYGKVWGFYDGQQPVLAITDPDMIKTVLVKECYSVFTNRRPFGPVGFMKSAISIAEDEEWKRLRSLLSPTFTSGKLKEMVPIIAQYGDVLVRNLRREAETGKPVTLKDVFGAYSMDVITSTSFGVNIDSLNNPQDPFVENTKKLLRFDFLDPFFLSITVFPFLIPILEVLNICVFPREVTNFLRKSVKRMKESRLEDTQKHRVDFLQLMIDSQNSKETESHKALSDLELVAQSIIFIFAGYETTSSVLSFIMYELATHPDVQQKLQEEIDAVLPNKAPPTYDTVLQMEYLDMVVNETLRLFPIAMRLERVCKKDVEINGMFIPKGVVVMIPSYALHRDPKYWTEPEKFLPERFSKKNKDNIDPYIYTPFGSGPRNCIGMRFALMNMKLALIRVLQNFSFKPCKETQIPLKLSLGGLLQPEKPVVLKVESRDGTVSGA
Chain of Mu-type opioid receptor (P35372 whole entry): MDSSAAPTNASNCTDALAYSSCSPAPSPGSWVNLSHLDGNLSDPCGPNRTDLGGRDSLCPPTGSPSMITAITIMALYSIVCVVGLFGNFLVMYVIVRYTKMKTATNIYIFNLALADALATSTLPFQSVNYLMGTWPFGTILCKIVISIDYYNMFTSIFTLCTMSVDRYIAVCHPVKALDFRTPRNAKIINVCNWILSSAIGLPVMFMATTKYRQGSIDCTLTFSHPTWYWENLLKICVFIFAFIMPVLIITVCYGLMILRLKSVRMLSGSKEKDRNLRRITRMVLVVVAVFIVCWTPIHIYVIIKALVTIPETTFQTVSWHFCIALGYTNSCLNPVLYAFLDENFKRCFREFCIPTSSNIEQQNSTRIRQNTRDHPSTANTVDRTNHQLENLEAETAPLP
Chain of Glutathione-S-transferase (Q26513 whole entry): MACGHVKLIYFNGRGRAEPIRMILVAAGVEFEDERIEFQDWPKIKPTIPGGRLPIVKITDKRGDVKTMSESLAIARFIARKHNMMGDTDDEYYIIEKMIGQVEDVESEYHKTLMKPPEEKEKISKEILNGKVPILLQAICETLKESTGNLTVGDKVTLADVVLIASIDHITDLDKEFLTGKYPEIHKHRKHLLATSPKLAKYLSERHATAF
Chain of Voltage-gated inwardly rectifying potassium channel KCNH2 (Q12809 whole entry): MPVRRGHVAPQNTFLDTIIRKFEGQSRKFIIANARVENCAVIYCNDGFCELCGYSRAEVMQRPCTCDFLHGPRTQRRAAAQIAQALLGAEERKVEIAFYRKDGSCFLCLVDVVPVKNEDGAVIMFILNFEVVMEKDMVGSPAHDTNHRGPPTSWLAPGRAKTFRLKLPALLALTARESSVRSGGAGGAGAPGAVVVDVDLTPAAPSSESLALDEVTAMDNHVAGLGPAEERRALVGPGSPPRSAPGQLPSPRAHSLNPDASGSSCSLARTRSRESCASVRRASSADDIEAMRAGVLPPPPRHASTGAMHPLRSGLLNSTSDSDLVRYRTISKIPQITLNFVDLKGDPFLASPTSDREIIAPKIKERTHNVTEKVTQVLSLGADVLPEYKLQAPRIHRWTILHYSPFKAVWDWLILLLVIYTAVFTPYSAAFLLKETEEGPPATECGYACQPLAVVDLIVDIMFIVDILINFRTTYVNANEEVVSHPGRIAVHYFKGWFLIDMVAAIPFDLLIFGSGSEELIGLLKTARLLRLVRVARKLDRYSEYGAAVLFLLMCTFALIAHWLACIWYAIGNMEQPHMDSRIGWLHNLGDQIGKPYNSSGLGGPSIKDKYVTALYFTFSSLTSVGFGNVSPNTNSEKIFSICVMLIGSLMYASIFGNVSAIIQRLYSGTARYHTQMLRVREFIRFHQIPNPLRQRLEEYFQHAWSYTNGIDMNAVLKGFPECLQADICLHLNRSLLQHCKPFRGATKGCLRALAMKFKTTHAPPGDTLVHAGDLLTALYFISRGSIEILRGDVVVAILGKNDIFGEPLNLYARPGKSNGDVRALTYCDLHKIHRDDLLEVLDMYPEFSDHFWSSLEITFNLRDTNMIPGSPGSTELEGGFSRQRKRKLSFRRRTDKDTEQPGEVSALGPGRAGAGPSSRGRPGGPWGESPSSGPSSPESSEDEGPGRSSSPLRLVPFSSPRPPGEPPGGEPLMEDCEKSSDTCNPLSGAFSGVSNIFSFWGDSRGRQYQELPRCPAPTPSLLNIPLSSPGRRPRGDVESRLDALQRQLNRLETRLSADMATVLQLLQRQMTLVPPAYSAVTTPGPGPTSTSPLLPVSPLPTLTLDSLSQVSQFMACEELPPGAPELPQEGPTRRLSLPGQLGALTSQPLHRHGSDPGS
Chain of Large T antigen (P03070 whole entry): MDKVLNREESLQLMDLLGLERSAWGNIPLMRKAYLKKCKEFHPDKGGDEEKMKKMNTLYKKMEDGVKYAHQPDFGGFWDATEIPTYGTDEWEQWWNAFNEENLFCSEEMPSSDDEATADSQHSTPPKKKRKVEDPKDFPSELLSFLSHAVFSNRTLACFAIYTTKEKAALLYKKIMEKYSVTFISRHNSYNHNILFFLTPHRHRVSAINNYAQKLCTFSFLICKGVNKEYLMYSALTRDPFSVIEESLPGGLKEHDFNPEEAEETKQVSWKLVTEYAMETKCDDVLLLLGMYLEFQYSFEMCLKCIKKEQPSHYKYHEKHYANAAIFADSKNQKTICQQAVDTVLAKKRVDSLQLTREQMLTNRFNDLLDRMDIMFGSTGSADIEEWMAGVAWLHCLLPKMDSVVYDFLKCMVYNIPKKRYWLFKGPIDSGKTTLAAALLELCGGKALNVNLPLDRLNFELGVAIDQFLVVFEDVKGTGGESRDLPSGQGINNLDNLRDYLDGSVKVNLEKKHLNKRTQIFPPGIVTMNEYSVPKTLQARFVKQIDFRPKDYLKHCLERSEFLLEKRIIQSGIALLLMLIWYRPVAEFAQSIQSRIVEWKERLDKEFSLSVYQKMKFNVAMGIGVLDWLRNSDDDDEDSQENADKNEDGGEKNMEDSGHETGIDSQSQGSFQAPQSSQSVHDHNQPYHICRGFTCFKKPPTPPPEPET

CC(C)Nc1ccc(Nc2ccccc2)cc1
IC50 (Large T antigen): 9.01 µM (active) | EC50 [1]: 2.52 µM (active) | EC50 [2]: > 60 µM (not active) | IC50 [3]: > 80 µM (inactive) | IC50 (Nonstructural protein 1): 19.2 µM (active) | AC50 [4]: 127 µM (active) | EC50 (Protein RecA): 76.4 µM (active) | AC50 (INS1): 6.94 µM (active) | CC50 [5]: 26.2 µM (active) | IC50 [6]: 58 µM (active) | AC50 (Cytochrome P450 3A4): 25.1 µM (inconclusive) | AC50 [7]: 15.8 µM (inconclusive) | AC50 [8]: 44.7 µM (inconclusive)

Cc1ccc(S(=O)(=O)Nc2ccc(Nc3nccn4c(-c5ccc6ccccc6c5)cnc34)cc2)cc1
IC50 [9]: 9.78 µM (active) | IC50 [10]: 16.3 µM (active)

CCc1cc(C(=O)Nc2nc(-c3ccccn3)cs2)sc1C
CC50 [11]: 32 µM (active) | IC50 (H9c2): > 79 µM (inactive) | AC50 [12]: 103 µM (active)

CCOc1ccc(Nc2c3ccccc3nc3ccccc23)cc1
CC50 (Vero): 6.47 µM (active) | EC50 [13]: > 92.5 µM (inactive) | EC50 (Mu-type opioid receptor): 43.8 µM (inactive) | EC50 [14]: > 92.5 µM (inactive) | AC50 (INS1): 5.05 µM (active) | AC50 [15]: 46.9 µM (active) | AC50 [16]: 7.28 µM (active) | AC50 [17]: 1.57 µM (active)
